In US9738660B2, “Selective inhibitors for protein kinases and pharmaceutical composition and use thereof” (National Chiao Tung University, priority 2014, dated 2017):
Like-named read-outs stand apart in the source and are kept apart here.

How the values were obtained:
Assay in all cases: Kinase Profiler, residual kinase activity
Format in all cases: biochemical
Details in all cases: read-out: percentage of the remaining kinase activity
RPS6KA5 = target: T1, RPS6KA5 (Homo sapiens, UniProt O75582)
T1 construct: purchased Research Biology Corp. (http://www.reactionbiology.com)
Text: (§1) Kinase Profiler services provided by […]. (http://www.reactionbiology.com) were used to analyze the data of the 9 type-S protein kinase inhibitors against the 40 types of protein kinases.

AURKA = target: T2, AURKA (Homo sapiens, UniProt O14965)
T2 sequence (O14965 1-403): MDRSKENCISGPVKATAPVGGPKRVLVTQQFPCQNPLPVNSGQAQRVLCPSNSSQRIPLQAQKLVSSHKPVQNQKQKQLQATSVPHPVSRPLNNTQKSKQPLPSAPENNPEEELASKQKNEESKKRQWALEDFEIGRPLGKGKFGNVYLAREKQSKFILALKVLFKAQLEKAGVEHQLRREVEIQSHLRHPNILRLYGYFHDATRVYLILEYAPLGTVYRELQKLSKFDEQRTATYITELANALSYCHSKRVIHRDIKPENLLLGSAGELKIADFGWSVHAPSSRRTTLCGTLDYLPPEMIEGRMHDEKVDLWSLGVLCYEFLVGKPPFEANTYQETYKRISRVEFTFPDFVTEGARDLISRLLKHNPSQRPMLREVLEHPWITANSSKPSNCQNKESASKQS
Text: as §1

MAP3K7 = target: T3, MAP3K7 (Homo sapiens, UniProt O43318)
T3 construct: purchased Research Biology Corp. (http://www.reactionbiology.com)
T3 sequence (O43318 1-303 limits assumed): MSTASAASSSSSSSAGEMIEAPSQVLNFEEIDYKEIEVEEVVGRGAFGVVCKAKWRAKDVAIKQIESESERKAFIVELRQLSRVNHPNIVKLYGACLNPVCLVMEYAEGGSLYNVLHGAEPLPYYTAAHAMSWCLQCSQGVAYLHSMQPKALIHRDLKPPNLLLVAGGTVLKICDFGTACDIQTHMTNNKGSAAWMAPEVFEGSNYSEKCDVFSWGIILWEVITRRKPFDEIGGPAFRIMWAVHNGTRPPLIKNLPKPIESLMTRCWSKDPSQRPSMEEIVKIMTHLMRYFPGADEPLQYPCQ
Text: as §1

STK11 = target: T4, STK11 (Homo sapiens, UniProt Q15831)
T4 sequence (Q15831 1-433): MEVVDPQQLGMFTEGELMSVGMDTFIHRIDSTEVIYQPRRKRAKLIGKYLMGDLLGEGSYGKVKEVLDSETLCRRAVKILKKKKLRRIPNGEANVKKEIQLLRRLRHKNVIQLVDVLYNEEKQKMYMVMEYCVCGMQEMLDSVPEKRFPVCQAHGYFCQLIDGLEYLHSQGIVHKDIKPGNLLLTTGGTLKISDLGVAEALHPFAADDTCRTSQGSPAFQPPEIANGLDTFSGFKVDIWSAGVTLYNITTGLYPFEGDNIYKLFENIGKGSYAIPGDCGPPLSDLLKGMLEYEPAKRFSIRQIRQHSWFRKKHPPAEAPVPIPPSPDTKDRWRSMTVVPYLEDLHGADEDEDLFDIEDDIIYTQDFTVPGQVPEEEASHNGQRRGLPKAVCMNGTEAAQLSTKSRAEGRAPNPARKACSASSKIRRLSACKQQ
T4 sequence (Q7RTN6 1-431 partner): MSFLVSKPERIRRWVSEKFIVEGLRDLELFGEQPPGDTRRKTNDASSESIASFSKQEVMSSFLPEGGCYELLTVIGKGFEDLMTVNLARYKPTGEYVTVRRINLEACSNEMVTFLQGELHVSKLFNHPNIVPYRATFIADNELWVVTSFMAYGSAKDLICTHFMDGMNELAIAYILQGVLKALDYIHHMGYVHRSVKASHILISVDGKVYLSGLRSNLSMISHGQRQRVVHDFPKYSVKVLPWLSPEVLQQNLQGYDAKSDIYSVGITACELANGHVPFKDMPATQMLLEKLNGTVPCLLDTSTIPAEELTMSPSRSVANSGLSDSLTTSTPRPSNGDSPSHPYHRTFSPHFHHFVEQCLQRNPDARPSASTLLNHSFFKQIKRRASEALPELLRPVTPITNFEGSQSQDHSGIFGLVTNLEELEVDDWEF
T4 sequence (Q9Y376 1-341 partner): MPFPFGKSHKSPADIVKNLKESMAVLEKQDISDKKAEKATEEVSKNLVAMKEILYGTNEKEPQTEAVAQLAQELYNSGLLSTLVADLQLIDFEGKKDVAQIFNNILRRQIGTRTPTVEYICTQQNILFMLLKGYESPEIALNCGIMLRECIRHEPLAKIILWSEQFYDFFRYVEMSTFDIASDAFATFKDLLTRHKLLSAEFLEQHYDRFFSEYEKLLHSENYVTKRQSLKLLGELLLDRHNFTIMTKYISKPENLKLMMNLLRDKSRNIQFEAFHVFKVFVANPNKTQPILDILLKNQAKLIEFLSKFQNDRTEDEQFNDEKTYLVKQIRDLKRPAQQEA
Text: as §1

INSR = target: T5, INSR (Homo sapiens, UniProt P06213)
T5 construct: purchased Research Biology Corp. (http://www.reactionbiology.com)
Text: as §1

GSK3B = GSK3B (Homo sapiens, UniProt P49841)
Text: as §1

IRAK4 = target: T6, IRAK4 (Homo sapiens, UniProt Q9NWZ3)
T6 sequence (Q9NWZ3 1-460): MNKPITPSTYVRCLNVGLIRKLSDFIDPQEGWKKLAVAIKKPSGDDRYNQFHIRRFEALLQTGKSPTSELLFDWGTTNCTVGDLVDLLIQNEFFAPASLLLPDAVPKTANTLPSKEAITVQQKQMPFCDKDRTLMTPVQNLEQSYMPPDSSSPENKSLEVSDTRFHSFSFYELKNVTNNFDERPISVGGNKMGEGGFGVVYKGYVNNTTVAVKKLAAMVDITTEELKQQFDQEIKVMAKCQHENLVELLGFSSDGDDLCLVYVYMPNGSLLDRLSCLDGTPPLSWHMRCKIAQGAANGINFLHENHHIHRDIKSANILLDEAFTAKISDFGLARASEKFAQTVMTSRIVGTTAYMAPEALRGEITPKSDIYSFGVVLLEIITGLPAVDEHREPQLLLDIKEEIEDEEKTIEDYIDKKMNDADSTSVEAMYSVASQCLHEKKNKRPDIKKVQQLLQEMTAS
Text: as §1

T1 sequence (O75582 whole entry): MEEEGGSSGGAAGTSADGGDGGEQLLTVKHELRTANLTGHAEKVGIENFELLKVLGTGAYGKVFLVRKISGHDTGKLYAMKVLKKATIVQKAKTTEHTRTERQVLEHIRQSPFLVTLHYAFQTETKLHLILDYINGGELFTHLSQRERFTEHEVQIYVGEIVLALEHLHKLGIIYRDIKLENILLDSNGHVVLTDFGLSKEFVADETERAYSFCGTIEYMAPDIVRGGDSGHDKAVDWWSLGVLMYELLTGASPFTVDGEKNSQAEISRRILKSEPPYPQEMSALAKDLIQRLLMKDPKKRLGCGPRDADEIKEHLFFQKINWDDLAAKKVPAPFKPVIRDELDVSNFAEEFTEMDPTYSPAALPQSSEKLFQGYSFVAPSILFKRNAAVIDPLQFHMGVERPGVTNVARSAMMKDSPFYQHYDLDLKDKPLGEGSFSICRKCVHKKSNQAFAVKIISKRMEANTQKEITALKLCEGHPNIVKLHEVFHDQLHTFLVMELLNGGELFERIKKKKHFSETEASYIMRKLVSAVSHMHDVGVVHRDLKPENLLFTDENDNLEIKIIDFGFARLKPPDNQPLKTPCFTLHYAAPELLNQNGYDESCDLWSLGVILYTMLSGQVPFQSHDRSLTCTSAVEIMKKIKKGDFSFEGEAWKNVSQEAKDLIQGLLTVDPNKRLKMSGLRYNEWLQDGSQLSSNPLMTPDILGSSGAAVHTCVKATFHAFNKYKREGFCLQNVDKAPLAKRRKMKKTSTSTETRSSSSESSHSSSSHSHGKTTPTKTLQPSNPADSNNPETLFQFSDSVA
Sequence of GSK3B (P49841 whole entry): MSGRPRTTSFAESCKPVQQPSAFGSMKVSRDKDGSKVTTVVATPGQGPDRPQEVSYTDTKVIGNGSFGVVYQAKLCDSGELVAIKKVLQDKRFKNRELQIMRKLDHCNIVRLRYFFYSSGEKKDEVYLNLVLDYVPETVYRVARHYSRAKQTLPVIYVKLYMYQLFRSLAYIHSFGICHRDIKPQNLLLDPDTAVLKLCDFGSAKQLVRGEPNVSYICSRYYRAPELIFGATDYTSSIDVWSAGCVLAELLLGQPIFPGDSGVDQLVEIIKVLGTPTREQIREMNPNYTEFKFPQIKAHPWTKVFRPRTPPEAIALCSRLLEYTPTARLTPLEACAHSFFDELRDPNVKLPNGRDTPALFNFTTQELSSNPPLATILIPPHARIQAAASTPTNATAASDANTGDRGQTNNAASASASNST
T5 sequence (P06213 28-1382): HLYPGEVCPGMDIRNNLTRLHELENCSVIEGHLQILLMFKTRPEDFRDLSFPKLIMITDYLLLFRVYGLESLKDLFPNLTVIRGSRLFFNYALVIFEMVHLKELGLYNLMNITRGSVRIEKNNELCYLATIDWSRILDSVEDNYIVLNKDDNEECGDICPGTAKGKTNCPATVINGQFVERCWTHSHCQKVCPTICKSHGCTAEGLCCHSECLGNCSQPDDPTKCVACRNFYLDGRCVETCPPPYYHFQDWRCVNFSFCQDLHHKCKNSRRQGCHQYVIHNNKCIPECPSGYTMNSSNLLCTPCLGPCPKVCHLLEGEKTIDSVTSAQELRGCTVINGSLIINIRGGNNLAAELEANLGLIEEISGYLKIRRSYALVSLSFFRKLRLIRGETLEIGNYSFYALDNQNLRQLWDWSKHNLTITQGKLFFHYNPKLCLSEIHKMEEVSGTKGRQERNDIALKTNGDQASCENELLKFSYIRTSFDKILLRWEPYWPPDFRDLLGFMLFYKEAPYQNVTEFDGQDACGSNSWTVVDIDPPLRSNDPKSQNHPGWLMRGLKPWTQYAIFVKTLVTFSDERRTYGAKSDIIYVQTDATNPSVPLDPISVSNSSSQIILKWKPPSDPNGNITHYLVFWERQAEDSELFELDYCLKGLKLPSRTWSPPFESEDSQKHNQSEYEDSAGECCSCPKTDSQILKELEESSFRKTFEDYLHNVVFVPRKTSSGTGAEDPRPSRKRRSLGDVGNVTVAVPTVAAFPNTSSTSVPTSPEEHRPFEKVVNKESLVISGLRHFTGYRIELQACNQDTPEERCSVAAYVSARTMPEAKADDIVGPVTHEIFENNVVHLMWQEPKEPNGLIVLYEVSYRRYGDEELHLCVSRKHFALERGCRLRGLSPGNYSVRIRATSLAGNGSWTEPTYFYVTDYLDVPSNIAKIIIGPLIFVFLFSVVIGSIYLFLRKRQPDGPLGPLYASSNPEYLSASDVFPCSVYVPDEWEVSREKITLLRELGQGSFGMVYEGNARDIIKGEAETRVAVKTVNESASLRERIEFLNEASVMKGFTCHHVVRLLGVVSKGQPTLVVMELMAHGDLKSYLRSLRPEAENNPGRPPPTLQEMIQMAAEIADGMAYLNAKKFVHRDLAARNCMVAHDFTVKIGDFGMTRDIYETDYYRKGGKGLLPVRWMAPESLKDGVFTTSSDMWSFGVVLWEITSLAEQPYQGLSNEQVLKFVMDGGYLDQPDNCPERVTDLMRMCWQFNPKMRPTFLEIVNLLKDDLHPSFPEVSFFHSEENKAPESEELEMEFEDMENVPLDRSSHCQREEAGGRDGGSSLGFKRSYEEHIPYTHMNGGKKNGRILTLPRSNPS

| SMILES | remaining activity at 0.5 µM (RPS6KA5; RPS6KA5, inhibitor at 500 nM) [%] | remaining activity at 0.5 µM (AURKA; AURKA, inhibitor at 500 nM) [%] | remaining activity at 0.5 µM (MAP3K7; MAP3K7, inhibitor at 500 nM) [%] | remaining activity at 0.5 µM (STK11; STK11, inhibitor at 500 nM) [%] | remaining activity at 0.5 µM (INSR; INSR, inhibitor at 500 nM) [%] | remaining activity at 0.5 µM (GSK3B; GSK3B, inhibitor at 500 nM) [%] | remaining activity at 0.5 µM (IRAK4; IRAK4, inhibitor at 500 nM) [%] | remaining activity at 0.5 µM (RPS6KA5) [%] | remaining activity at 0.5 µM (AURKA) [%] | remaining activity at 0.5 µM (INSR) [%] | remaining activity at 0.5 µM (IRAK4) [%] | remaining activity at 0.5 µM (MAP3K7) [%] | remaining activity at 0.5 µM (STK11) [%] | remaining activity at 0.5 µM (GSK3B) [%] |
| --- | --- | --- | --- | --- | --- | --- | --- | --- | --- | --- | --- | --- | --- | --- |
| COC1C(N(C)Cc2ccc(-c3ccccc3)cc2)CC2OC1(C)n1c3ccccc3c3c4c(c5c6ccccc6n2c5c31)C(=O)NC4 (stereo not drawn) [Compound 9] | 5.2 | 11.2 | 69.4 | 91.9 | 79.1 | 46.6 | 26.6 |  |  |  |  |  |  |  |
| COC1C(N(C)C(=O)C(N)Cc2ccc(OC(C)(C)C)cc2)CC2OC1(C)n1c3ccccc3c3c4c(c5c6ccccc6n2c5c31)C(=O)NC4 (stereo not drawn) [Compound 4] | 1.6 | 19.7 | 98.6 | 113 | 84.8 | 86.6 | 87.4 |  |  |  |  |  |  |  |
| COC1C(N(C)C(=O)C(N)CCC(=O)OC(C)(C)C)CC2OC1(C)n1c3ccccc3c3c4c(c5c6ccccc6n2c5c31)C(=O)NC4 (stereo not drawn) [Compound 6] | 3.3 | 5.3 | 84.2 | 104 | 72.3 | 79.7 | 63.5 |  |  |  |  |  |  |  |
| CN[C@@H]1C[C@H]2O[C@@](C)([C@@H]1OC)n1c3ccccc3c3c4c(c5c6ccccc6n2c5c31)C(=O)NC4 [STU, staurosporine, reference compound] |  |  |  |  |  |  |  | 1.1 | 0.2 | 16.2 | 1.6 |  |  |  |
| COC1C(N(C)CCOc2cccc([N+](=O)[O-])c2)CC2OC1(C)n1c3ccccc3c3c4c(c5c6ccccc6n2c5c31)C(=O)NC4 (stereo not drawn) [Compound 8] |  |  |  |  |  |  |  | 7.4 | 12.1 | 83.1 | 27.9 | 63.5 | 101 | 51.8 |
| COC1C(N(C)C(=O)C(N)CCC(=O)O)CC2OC1(C)n1c3ccccc3c3c4c(c5c6ccccc6n2c5c31)C(=O)NC4 (stereo not drawn) [Compound 7] | 1.8 | 0.9 | 27.8 | 79.9 | 32.8 | 9.6 | 46.8 |  |  |  |  |  |  |  |
| COC1C(N(C)C(=O)C(N)Cc2ccc(O)cc2)CC2OC1(C)n1c3ccccc3c3c4c(c5c6ccccc6n2c5c31)C(=O)NC4 (stereo not drawn) [Compound 5] | 2.4 | 4.9 | 70.7 | 102 | 69.1 | 29.4 | 85.9 |  |  |  |  |  |  |  |
| COC1C(N(C)C(=O)C(N)Cc2cn(C(=O)OC(C)(C)C)c3ccccc23)CC2OC1(C)n1c3ccccc3c3c4c(c5c6ccccc6n2c5c31)C(=O)NC4 (stereo not drawn) [Compound 2] | 61.4 | 86.2 | 103 | 106 | 97.9 | 94.2 | 101 |  |  |  |  |  |  |  |
| COC1C(N(C)C(=O)C(N)Cc2c[nH]cn2)CC2OC1(C)n1c3ccccc3c3c4c(c5c6ccccc6n2c5c31)C(=O)NC4 (stereo not drawn) [Compound 1] | 1.7 | 2.1 | 37.5 | 88.7 | 23.1 | 17.9 | 33.4 |  |  |  |  |  |  |  |
